Reference: ChEMBL document CHEMBL4616648, “Irijimasides A-E, Macrolide Glycosides from an Okeania sp. Marine Cyanobacterium” (J Nat Prod, 2020)

Legend:
[1] = species on record: Mus musculus; assay: Inhibition of RANKL-induced osteoclastogenesis in mouse RAW264 cells assessed as reduction in TRAP activity incubated for 4 days; assay type: functional, cell-based
[2] = Cytotoxicity against mouse RAW264 cells at 3 to 30 uM by MTT assay; assay type: cell-based

Structure (SMILES) | inhibition [1] | Activity [2]
C#CCCC/C=C/C=C/C1C/C(C)=C/[C@@H](OC)C[C@@H]2O[C@@](O)(CC(O[C@@H]3O[C@@H](C)[C@H](O)[C@@H](O)[C@H]3OC)[C@@H]2C)[C@H](C)C(=O)O1 (stereo not given in full) | Dose-dependent effect | Non-Toxic
C=CCC/C=C/C=C/C1C/C(C)=C/[C@@H](OC)C[C@H]2CC(O[C@@H]3O[C@@H](C)[C@H](O)[C@@H](OC)[C@H]3OC)C[C@](O)(O2)[C@H](C)C(=O)O1 (stereo not given in full) | Dose-dependent effect | Non-Toxic
C=CCC/C=C/C=C/C1C/C(C)=C/[C@@H](OC)C[C@@H]2O[C@@](O)(CC(O[C@@H]3O[C@@H](C)[C@H](O)[C@@H](OC)[C@H]3OC)[C@@H]2C)[C@H](C)C(=O)O1 (stereo not given in full) | Dose-dependent effect | Non-Toxic
C=CCC/C=C/C=C/C1C/C(C)=C/[C@@H](OC)C[C@@H]2O[C@](O)(CC(=O)O1)CC(O[C@@H]1O[C@@H](C)[C@H](O)[C@@H](OC)[C@H]1OC)[C@@H]2C (stereo not given in full) | Dose-dependent effect | Non-Toxic
C=CCC/C=C/C=C/C1C/C(C)=C/[C@@H](OC)C[C@@H]2O[C@@](O)(CC(O[C@@H]3O[C@@H](C)[C@H](O)[C@@H](O)[C@H]3OC)[C@@H]2C)[C@H](C)C(=O)O1 (stereo not given in full) | Dose-dependent effect | Non-Toxic
